“Also recorded” adds a separate entry of the source. Blank lines part the entries; values can stand above or below the compound they belong to.
How the values were obtained:
[1] = test system: NF-κB; assay: Dual-luciferase (NF-κB firefly / SV40 Renilla) reporter assay in HEK293 cells; assay type: cell-based; settings: Homo sapiens; inhibition of TNF-α-induced NF-κB activation, HEK293, luciferase assays at 0, 25, 50, 100 and 150 μM, GraphPad
Description: Thus seven rounds of structural modification and optimization were performed to improve bioactivity and stability and more than one hundred small molecules were tested (data not shown). […] To minimize the influence of drug toxicity on the screening assay, a renilla luciferase reporter driven by the SV40 promoter was cotransfected with the NF-κB luciferase reporter into HEK293 cells as a co-reporter for normalization.
Inhibitory effects of NBD mimetics on NF-κB activation were measured by luciferase assays at multiple concentrations: 0, 25, 50, 100 and 150 μM. IC50 of NBD mimetics was determined based on the dose-dependent curve by using GraphPad.
HEK293 cells grown in 10 cm plates were co-transfected with co-reporter of Renilla plasmid driven by SV40 and luciferase plasmid driven by NF-κB at the ratio of 1:3 with Lipofectamine 2000 (Invitrogen). Transiently transfected HEK293 were grown and treated as described above and subjected to a dual-luciferase reporter assay according to the manufacturer's instruction. Firefly luciferase activity was normalized to Renilla luciferase to get the relative luciferase activity.

[2] = test system: Ercc1−/Δ mice; assay: Chronic treatment of Ercc1−/Δ mouse model of accelerated aging with SR12343; assay type: in vivo
From the text: FIG. 41 summarizes the regimen and endpoints for the study of the effects of NBD mimetics on aging using the Ercc1^−/Δ mouse model of accelerated aging
Thus these novel NBD mimetics could be used not only for treatment of inflammatory and degenerative diseases, but also aging.

[3] = biological target: T1, IKK complex (IKKß, IKKα and NEMO) (Homo sapiens, UniProt Q9Y6K9); assay: Co-immunoprecipitation of NEMO with IKKß in 293 cells; assay type: cell-based; settings: Zinc-5 at 4 hours, Zinc-13 at 1 hour, NBD peptide at 4 hours
T1 construct: analyzed by Western blot for the level of co-precipitated NEMO; endogenous in cells; host or cells: 293 (HEK293) cells
T1 sequence (Q9Y6K9 whole entry, one chain of several): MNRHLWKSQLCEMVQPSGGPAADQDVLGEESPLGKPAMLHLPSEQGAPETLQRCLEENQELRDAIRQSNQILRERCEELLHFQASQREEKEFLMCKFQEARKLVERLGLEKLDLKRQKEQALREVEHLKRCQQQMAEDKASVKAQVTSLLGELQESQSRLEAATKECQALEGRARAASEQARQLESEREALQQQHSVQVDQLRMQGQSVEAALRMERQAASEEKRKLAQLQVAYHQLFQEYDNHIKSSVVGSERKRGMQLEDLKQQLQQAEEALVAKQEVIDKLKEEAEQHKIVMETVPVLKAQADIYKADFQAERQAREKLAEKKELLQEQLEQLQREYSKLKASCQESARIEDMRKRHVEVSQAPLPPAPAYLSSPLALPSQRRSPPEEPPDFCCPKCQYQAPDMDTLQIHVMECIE
From the text: FIG. 8 is a bar graph showing the inhibition of TNFα by NBDA-1 (Zinc-13). […] In addition, we have examined the ability of the compounds to disrupt the IKK complex, comprised of IKKß, IKKα and NEMO.
A non-functional, related compound Zinc-7 had no effect.

- IC50 [1]: 11.2 µM
SMILES: O=C(CNCCc1cc(F)cc(F)c1)Nc1ccc(Cl)cn1 [SR12460, N-(5-chloropyridin-2-yl)-2-((3,5-difluorophenethyl)amino)acetamide]

SMILES: O=C(CNc1ccc(Cl)cn1)NCCc1cccc(Br)c1 [SR12343, N-(3-bromophenethyl)-2-((5-chloropyridin-2-yl)amino)acetamide]
- glycosaminoglycan (GAG) in intervertebral disc nucleus pulposus [2]: improves pathology in the intervertebral disc as determined by measuring proteoglycans (GAG)
- healthspan [2]: extension of healthspan
- clearance of blood glucose (oral glucose tolerance test) ([2]; 15 wk-old mice): improves clearance of glucose in an oral glucose tolerance test
- senescence ([2]; 15 wk-old mice): reduces senescence
- aging symptoms associated with frailty ([2]; different ages): reduces the onset of symptoms associated with frailty
- overall score of the aging symptoms ([2]; different ages): reduces the onset of symptoms with chronic treatment
- body fat percentage (NMR) ([2]; male mice): reduces loss of fat in male mice
- forelimb grip strength ([2]; male mice): improves grip strength in male mice

SMILES: Nc1ncccc1C(=O)OCC(=O)Nc1ccc(Cl)cc1F [NBDA-1, 2-((4-chloro-2-fluorophenyl)amino)-2-oxoethyl 2-aminonicotinate]
- level of NEMO co-immunoprecipitated with IKKß [3]: reduced the level of co-immunoprecipitated NEMO; also recorded: disrupt the interaction between IKKß and IKKgamma

From patent publication US10758522B2, “Small molecule analogs of the nemo binding peptide” (THE SCRIPPS RESEARCH INSTITUTE, priority 2015, dated 2020)
